Results: US20240358692A1, “TREATMENT OF SCLERODERMA” (Aisa Pharma, Inc., priority 2023, published 2024)

System: participants with SSc-RP
Test: SHAQ - Visual Analog Scale - Overall Disease Severity
Format: in vivo, human
Settings: for % change overall SSc Disease Severity: SHAQ, mITT Part A
From the text: The standard, validated, patient reported outcome measures tool for SSc patients, the Scleroderma Health Assessment Questionnaire (SHAQ), will be used to assess the participant qualify of life. Details are attached in the Appendix. The participant quality of life will be scored, and a disability index calculated for each questionnaire completed by the patient at Screening and each in-clinic visit. The absolute change in participant quality of life from baseline to the end of each dosing period will be calculated similar to frequency data as before.
The standard, validated, patient reported outcome measures tool for SSc patients, the SHAQ, was collected at the time points specified in the study schedules (FIG. 2 and FIGS. 4A and 4B) to assess the participant's quality of life. The SHAQ included a Raynaud's VAS that will also be reported separately.

[1] = Any Cilnidipine (N = 17), Day 12, PP Population, Part A
[2] = Pooled Cilnidipine 10 mg and Cilnidipine 10 mg + Tadalafil 5 mg, PP, Part A
[3] = Pooled Cilnidipine 20 mg and Cilnidipine 20 mg + Tadalafil 5 mg, PP, Part A
[4] = Pooled Cilnidipine (N = 7), Day 12, Modified ITT Population - Part A
[5] = Pooled Cilnidipine (N = 8), Day 12, PP Population, Part A
[6] = Sensitivity Analysis (diagnosis of SSc), Modified ITT, Part A, Day 12, arms Cilnidipine 10 mg, Tadalafil 5 mg, Cilnidipine 10 mg + Tadalafil 5 mg
[7] = cilnidipine 10 mg (combination: + tadalafil 5 mg)
[8] = cilnidipine 20 mg (combination: + tadalafil 5 mg)

COCCOC(=O)C1=C(C)NC(C)=C(C(=O)OC/C=C/c2ccccc2)C1c1cccc([N+](=O)[O-])c1 (stereo not shown) [Cilnidipine]
SHAQ Visual Analogue Scale - Overall Disease Severity, Change from Baseline, Mean (SD) [1]: −0.991 (1.0921)
SHAQ Visual Analogue Scale - Overall Disease Severity, Change from Baseline, Median [1]: −1.100
SHAQ Visual Analogue Scale - Overall Disease Severity, In-Clinic Visit (Day 12), Mean (SD) [1]: 2.203 (2.1532)
SHAQ Visual Analogue Scale - Overall Disease Severity, In-Clinic Visit (Day 12), Median [1]: 1.400
SHAQ Visual Analogue Scale - Overall Disease Severity, Percent Change from Baseline, Mean (SD) [1]: −36.33 (43.497) %
SHAQ Visual Analogue Scale - Overall Disease Severity, Percent Change from Baseline, Median [1]: −42.89%
% change overall SSc Disease Severity (Cilnidipine 20 mg (n = 3)): −63% (i.e.,
SHAQ Overall Scleroderma Disease Severity, mean % change (Cilnidipine 20 mg (n = 3), minus = improvement, Table A*): −63%
SHAQ VAS Overall Disease Severity, Change from Baseline, Max [2]: 1.90
SHAQ VAS Overall Disease Severity, Change from Baseline, Mean (SD) [2]: −0.606 (1.1663)
SHAQ VAS Overall Disease Severity, Change from Baseline, Min [2]: −1.90
SHAQ VAS Overall Disease Severity, Change from Baseline, Q1 [2]: −1.500
SHAQ VAS Overall Disease Severity, Change from Baseline, Q3 [2]: −0.300
SHAQ VAS Overall Disease Severity, Day 12, Max [2]: 6.00
SHAQ VAS Overall Disease Severity, Day 12, Min [2]: 0.00
SHAQ VAS Overall Disease Severity, Day 12, Q1 [2]: 0.800
SHAQ VAS Overall Disease Severity, Day 12, Q3 [2]: 3.800
SHAQ VAS Overall Disease Severity, Percent Change from Baseline, Max [2]: 100.0
SHAQ VAS Overall Disease Severity, Percent Change from Baseline, Mean (SD) [2]: −24.68 (57.343)
SHAQ VAS Overall Disease Severity, Percent Change from Baseline, Min [2]: −100.0
SHAQ VAS Overall Disease Severity, Percent Change from Baseline, Q1 [2]: −51.01
SHAQ VAS Overall Disease Severity, Percent Change from Baseline, Q3 [2]: −16.76
SHAQ Visual Analogue Scale - Overall Disease Severity, Change from Baseline, Median (Pooled Cilnidipine 20 mg and Cilnidipine 20 mg + Tadalafil 5 mg (N = 7), Day 12, Modified ITT Population - Part A): −1.500
SHAQ Visual Analogue Scale - Overall Disease Severity, In-Clinic Visit (Day 12), Median (Pooled Cilnidipine 20 mg and Cilnidipine 20 mg + Tadalafil 5 mg (N = 7), Modified ITT Population - Part A): 1.200
SHAQ VAS Overall Disease Severity, Change from Baseline, Max [3]: −0.40
SHAQ VAS Overall Disease Severity, Change from Baseline, Min [3]: −3.10
SHAQ VAS Overall Disease Severity, Change from Baseline, Q1 [3]: −1.750
SHAQ VAS Overall Disease Severity, Change from Baseline, Q3 [3]: −0.650
SHAQ VAS Overall Disease Severity, Day 12, Max [3]: 7.30
SHAQ VAS Overall Disease Severity, Day 12, Median [3]: 1.300
SHAQ VAS Overall Disease Severity, Day 12, Min [3]: 0.50
SHAQ VAS Overall Disease Severity, Day 12, Q1 [3]: 0.800
SHAQ VAS Overall Disease Severity, Day 12, Q3 [3]: 1.750
SHAQ VAS Overall Disease Severity, Percent Change from Baseline, Max [3]: −9.9
SHAQ VAS Overall Disease Severity, Percent Change from Baseline, Min [3]: −76.2
SHAQ VAS Overall Disease Severity, Percent Change from Baseline, Q1 [3]: −64.44
SHAQ VAS Overall Disease Severity, Percent Change from Baseline, Q3 [3]: −36.22
SHAQ Visual Analogue Scale - Overall Disease Severity, Change from Baseline, Mean [4]: −1.214
SHAQ Visual Analogue Scale - Overall Disease Severity, Percent Change from Baseline, Mean [4]: −59.80%
SHAQ Visual Analogue Scale - Overall Disease Severity, Percent Change from Baseline, Median [4]: −55.86%
SHAQ Visual Analogue Scale - Overall Disease Severity, In-Clinic Visit (Day 12), Mean (Pooled Cilnidipine (N = 7), Modified ITT Population - Part A): 1.486
SHAQ Visual Analogue Scale - Overall Disease Severity, In-Clinic Visit (Day 12), Mean (SD) [5]: 1.475 (1.6430)
SHAQ Visual Analogue Scale - Overall Disease Severity, In-Clinic Visit (Day 12), Median [5]: 1.300
% change overall SSc Disease Severity (Pooled Cilnidipine (n = 7)): −60% (i.e.,
SHAQ VAS Overall Disease Severity, Change from Baseline, Max (Pooled Cilnidipine, PP, Part A): 0.20
SHAQ VAS Overall Disease Severity, Change from Baseline, Mean (SD) (Pooled Cilnidipine, PP, Part A): −1.450 (0.9928)
SHAQ VAS Overall Disease Severity, Change from Baseline, Median (Pooled Cilnidipine, PP, Part A): −1.550
SHAQ VAS Overall Disease Severity, Change from Baseline, Min (Pooled Cilnidipine, PP, Part A): −3.10
SHAQ VAS Overall Disease Severity, Change from Baseline, Q1 (Pooled Cilnidipine, PP, Part A): −1.850
SHAQ VAS Overall Disease Severity, Change from Baseline, Q3 (Pooled Cilnidipine, PP, Part A): −0.950
SHAQ VAS Overall Disease Severity, Day 12, Max (Pooled Cilnidipine, PP, Part A): 5.20
SHAQ VAS Overall Disease Severity, Day 12, Median (Pooled Cilnidipine, PP, Part A): 1.300
SHAQ VAS Overall Disease Severity, Day 12, Min (Pooled Cilnidipine, PP, Part A): 0.00
SHAQ VAS Overall Disease Severity, Day 12, Q1 (Pooled Cilnidipine, PP, Part A): 0.350
SHAQ VAS Overall Disease Severity, Day 12, Q3 (Pooled Cilnidipine, PP, Part A): 1.650
SHAQ VAS Overall Disease Severity, Percent Change from Baseline, Max (Pooled Cilnidipine, PP, Part A): −26.8
SHAQ VAS Overall Disease Severity, Percent Change from Baseline, Mean (SD) (Pooled Cilnidipine, PP, Part A): −61.10 (23.658)
SHAQ VAS Overall Disease Severity, Percent Change from Baseline, Median (Pooled Cilnidipine, PP, Part A): −60.00
SHAQ VAS Overall Disease Severity, Percent Change from Baseline, Min (Pooled Cilnidipine, PP, Part A): −100.0
SHAQ VAS Overall Disease Severity, Percent Change from Baseline, Q1 (Pooled Cilnidipine, PP, Part A): −76.19
SHAQ Visual Analogue Scale - Overall Disease Severity: Change from Baseline, Median [6]: −1.500
SHAQ Visual Analogue Scale - Overall Disease Severity: In-Clinic Visit (Day 12), Median [6]: 1.900
SHAQ Visual Analogue Scale - Overall Disease Severity: In-Clinic Visit (Day 12), Median (Sensitivity Analysis (diagnosis of SSc), Modified ITT, Part A, Day 12, arms Cilnidipine 20 mg, Cilnidipine 20 mg + Tadalafil 5 mg): 1.200
VAS Overall Severity Change from Baseline Max [7]: 0.20
VAS Overall Severity Change from Baseline Mean [7]: −0.900
VAS Overall Severity Change from Baseline Median [7]: −0.950
VAS Overall Severity Change from Baseline Min [7]: −1.90
VAS Overall Severity Change from Baseline Q1 [7]: −1.700
VAS Overall Severity Change from Baseline Q3 [7]: −0.100
VAS Overall Severity Day 12 Max [7]: 5.20
VAS Overall Severity Day 12 Min [7]: 0.00
VAS Overall Severity Day 12 Q1 [7]: 0.100
VAS Overall Severity Day 12 Q3 [7]: 3.550
VAS Overall Severity Percent Change from Baseline Max [7]: −26.8%
VAS Overall Severity Percent Change from Baseline Mean [7]: −56.96%
VAS Overall Severity Percent Change from Baseline Median [7]: −44.12%
VAS Overall Severity Percent Change from Baseline Min [7]: −100.0%
VAS Overall Severity Percent Change from Baseline Q1 [7]: −100.00%
VAS Overall Severity Percent Change from Baseline Q3 [7]: −26.76%
VAS Overall Severity Change from Baseline Max [8]: −1.50
VAS Overall Severity Change from Baseline Mean [8]: −1.633,
VAS Overall Severity Change from Baseline Median [8]: −1.600
VAS Overall Severity Change from Baseline Min [8]: −1.80
VAS Overall Severity Change from Baseline Q1 [8]: −1.800
VAS Overall Severity Change from Baseline Q3 [8]: −1.500
VAS Overall Severity Day 12 Max [8]: 1.40
VAS Overall Severity Day 12 Median [8]: 1.200
VAS Overall Severity Day 12 Min [8]: 0.50
VAS Overall Severity Day 12 Q1 [8]: 0.500
VAS Overall Severity Day 12 Q3 [8]: 1.400
VAS Overall Severity Percent Change from Baseline Max [8]: −51.7%
VAS Overall Severity Percent Change from Baseline Mean [8]: −62.64%
VAS Overall Severity Percent Change from Baseline Median [8]: −60.00%
VAS Overall Severity Percent Change from Baseline Min [8]: −76.2%
